The target of one data set is T1, Cytochrome P450 1A2 (Homo sapiens, UniProt P05177).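 Note: PubChem cytochrome P450 panel assay, CYP1A2 panel member.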
T1 sequence (P05177 whole entry): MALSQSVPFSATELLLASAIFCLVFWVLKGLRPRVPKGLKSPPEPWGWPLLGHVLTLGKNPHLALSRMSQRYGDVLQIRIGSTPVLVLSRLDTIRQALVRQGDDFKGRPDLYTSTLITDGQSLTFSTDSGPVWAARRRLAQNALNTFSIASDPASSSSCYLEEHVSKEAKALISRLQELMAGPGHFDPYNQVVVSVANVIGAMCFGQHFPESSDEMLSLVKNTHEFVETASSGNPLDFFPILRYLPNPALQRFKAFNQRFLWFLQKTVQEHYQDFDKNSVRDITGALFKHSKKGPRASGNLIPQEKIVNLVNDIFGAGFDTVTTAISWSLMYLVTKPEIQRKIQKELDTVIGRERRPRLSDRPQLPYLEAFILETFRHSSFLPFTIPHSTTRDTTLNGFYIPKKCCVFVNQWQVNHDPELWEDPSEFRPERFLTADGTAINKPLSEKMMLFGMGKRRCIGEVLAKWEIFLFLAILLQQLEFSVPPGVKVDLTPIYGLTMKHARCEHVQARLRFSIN

Data set [1] has as its target T2, Mu-type opioid receptor (Homo sapiens, UniProt P35372). Nature of the data set: HTS Image-Based Screen for Agonists of the MOR Receptor. [Related pubchem assays (depositor defined):AID1777, AID1785, AID1786, AID2133]. The class given is functional.
Data set [2] has as its target T2, Mu-type opioid receptor. Nature of the data set: mu opioid receptor blockers – image-based, SAR follow-up (AID 2420).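 Note: compounds added before stimulation of receptor with agonist DAMGO.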 The class given is functional.
The target of data set [3] is T3, Delta-type opioid receptor (Homo sapiens, UniProt P41143). The data set is described as follows: delta opioid receptor blockers – image-based, SAR follow-up (AID 2357). The class given is functional.
The target in data set [4] is T4, Kappa-type opioid receptor (Homo sapiens, UniProt P41145). Nature of the data set: kappa opioid receptor activation potency – imaging, image-based, SAR follow-up (AID 2359). The class given is functional.
Data set [5] deals with T4, Kappa-type opioid receptor. The data set is described as follows: SAR analysis of small molecule agonists of the kappa opioid receptor via a luminescent beta-arrestin assay. [Related pubchem assays (depositor defined):AID1777, AID1786, AID1966, AID2133, AID2136, AID2348, AID2352, AID2357, AID2359, AID2370, AID2420, AID2478, AID2491, AID2492, AID2493, AID2497, AID2498, AID2500, AID449737, AID488822, AID488842]. The class given is functional.

The target of data set [6] is T4, Kappa-type opioid receptor. In kind it is functional.
Data set [7] deals with T4, Kappa-type opioid receptor. In kind it is functional. This is another data set of the same source.
The target of data set [8] is T3, Delta-type opioid receptor. The data set is described as follows: DOR agonists, SAR follow-up, image-based (AID 2370). The class given is functional.
Data set [9] deals with T3, Delta-type opioid receptor. The data set is described as follows: HTS Image-Based Screen for Antagonists of the DOR Receptor. [Related pubchem assays (depositor defined):AID1777, AID1785, AID1786, AID2133]. The class given is functional.
Data set [10] concerns the target T3, Delta-type opioid receptor. The data set is described as follows: HTS Image-Based Screen for Agonists of the DOR Receptor. [Related pubchem assays (depositor defined):AID1777, AID1786, AID2133]. The class given is functional.
The target of data set [11] is T2, Mu-type opioid receptor. The data set is described as follows: mu opioid receptor activators, image-based, SAR follow-up (AID 2352). In kind it is functional.
Data set [12] concerns the target T4, Kappa-type opioid receptor. Nature of the data set: kappa opioid receptor blockers, image-based, SAR follow-up (AID 2348). The class given is functional.
A short description of data set [13]: NIH3T3 cell viability loss – ATP luminescence, mouse fibroblasts, counter-screen, dose response (AID 2010).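 Note: cells exposed to compound for about 90 hours before reading.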 The class given is functional, cell-based.
For data set [14], the target named is G-protein coupled receptor 55 (Homo sapiens, UniProt Q9Y2T6). The data set is described as follows: blockers of GPR55 signalling, imaged – imaging, image-based, counter-screen for GPR35 antagonist project, SAR follow-up (AID 2397). In kind it is functional.
In data set [15] the target is DNA dC->dU-editing enzyme APOBEC-3G (Homo sapiens, UniProt Q9HC16). The class given is functional.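 Note: Dose-response counterscreen measuring inhibition of APOBEC3G DNA deaminase activity, run while confirming APOBEC3A inhibitors.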
The target of data set [16] is G-protein coupled receptor 35 (Homo sapiens, UniProt Q9HC97). The data set is described as follows: inhibition of zaprinast-stimulated GPR35 beta-arrestin translocation – imaging, U2OS, beta-arrestin-GFP, zaprinast agonist, primary screen (AID 2058).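 Note: antagonist potency meaning inhibition of agonist-induced arrestin redistribution.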 The class given is functional.
Data set [17] in a line: Trypanosoma cruzi growth suppression in host cells – NIH3T3 host cells, beta-gal luminescence, confirmation (AID 2044).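 Note: intracellular parasites grown in NIH/3T3 mouse fibroblasts as host cells; luminescent beta-galactosidase reporter signal from transgenic T. cruzi replicating inside host cells; inhibitors lower the luminescence signal.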 In kind it is functional, cell-based.
Another data set has as its system INS1. The data set is described as follows: INS-1E survival protection against cytokine death – cell-based, luminescence, retest, dose response (AID 449756).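 Note: cell death triggered by IL-1 beta plus TNF-alpha plus IFN-gamma mixture; protective hits raise ATP signal compared with cytokine alone wells.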 In kind it is functional. The note with it: Rattus norvegicus.
The target of data set [18] is DNA dC->dU-editing enzyme APOBEC-3A (Homo sapiens, UniProt P31941). The data set is described as follows: Dose Response confirmation of small molecule APOBEC3A DNA Deaminase Inhibitors via a fluorescence-based single-stranded DNA deaminase assay. [Related pubchem assays (depositor defined):AID493011, AID493024]. In kind it is functional.
The target of another data set is Troponin, cardiac muscle (Homo sapiens, UniProt P19429+P45379+P63316). Nature of the data set: Fluorescence-based biochemical high throughput dose response assay for activators of the calcium sensitivity of cardiac Regulated Thin Filaments (RTF). [Related pubchem assays (depositor defined):AID493008, AID493018, AID504382, AID504383]. In kind it is protein-complex assay.

A further data set concerns the target Phosphomannomutase 2 (Homo sapiens, UniProt O15305). The data set is described as follows: Counter screen SAR assay for PMM2 inhibitors via a fluorescence intensity assay. [Related pubchem assays (depositor defined):AID1545, AID1574]. Background: A counterscreen serves to expose hits that act by an unwanted route or on another target.
Data set [19] deals with T5, Mannose-6-phosphate isomerase (Homo sapiens, UniProt P34949).
T5 sequence (P34949 whole entry): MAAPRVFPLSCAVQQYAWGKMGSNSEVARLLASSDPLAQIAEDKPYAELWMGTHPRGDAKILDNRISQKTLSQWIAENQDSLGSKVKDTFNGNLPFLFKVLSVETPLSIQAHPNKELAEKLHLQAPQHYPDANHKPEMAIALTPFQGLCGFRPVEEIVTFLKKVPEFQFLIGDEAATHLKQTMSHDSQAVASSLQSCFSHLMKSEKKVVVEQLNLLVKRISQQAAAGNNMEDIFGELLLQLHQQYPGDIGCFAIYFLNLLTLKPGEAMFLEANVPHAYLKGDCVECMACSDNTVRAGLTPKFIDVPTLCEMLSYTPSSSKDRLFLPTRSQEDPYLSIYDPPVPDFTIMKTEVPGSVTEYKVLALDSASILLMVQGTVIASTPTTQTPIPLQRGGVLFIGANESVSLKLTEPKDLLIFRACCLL
The data set is described as follows: phosphomannose isomerase inhibition – biochemical, fluorescence intensity, confirmation (AID 1535).

By AC50 is commonly meant the concentration at which the activity in the assay is half-maximal. The EC50 is the concentration that produces a half-maximal response. As a reminder, the IC50 is the point on the concentration scale where inhibition reaches its midpoint.

SMILES strings stand for the structures. Values joined by “and” are separate entries in the source; they are usually repeats but may differ in a detail not shown here. Identical values can stand only once. Active and inactive are the calls of the source.

T3 sequence (P41143 whole entry): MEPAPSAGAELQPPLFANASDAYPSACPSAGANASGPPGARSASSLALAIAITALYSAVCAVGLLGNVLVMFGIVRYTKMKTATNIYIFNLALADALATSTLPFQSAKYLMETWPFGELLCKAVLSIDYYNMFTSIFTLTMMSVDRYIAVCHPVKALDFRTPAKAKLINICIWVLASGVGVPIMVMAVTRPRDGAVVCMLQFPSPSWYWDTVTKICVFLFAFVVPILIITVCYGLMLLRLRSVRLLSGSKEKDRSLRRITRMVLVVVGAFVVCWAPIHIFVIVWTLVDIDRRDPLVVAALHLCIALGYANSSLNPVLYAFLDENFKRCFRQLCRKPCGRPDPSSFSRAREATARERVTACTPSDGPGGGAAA
T2 sequence (P35372 whole entry): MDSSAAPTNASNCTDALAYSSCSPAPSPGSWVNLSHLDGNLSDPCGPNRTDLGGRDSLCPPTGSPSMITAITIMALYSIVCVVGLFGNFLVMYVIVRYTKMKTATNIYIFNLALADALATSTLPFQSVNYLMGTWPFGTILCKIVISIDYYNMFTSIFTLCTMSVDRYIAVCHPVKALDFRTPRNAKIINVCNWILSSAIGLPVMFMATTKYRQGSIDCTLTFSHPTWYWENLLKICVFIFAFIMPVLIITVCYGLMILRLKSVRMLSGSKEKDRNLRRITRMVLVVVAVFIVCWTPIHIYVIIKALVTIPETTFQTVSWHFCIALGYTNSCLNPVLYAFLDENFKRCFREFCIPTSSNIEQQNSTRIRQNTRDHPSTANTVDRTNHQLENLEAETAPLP
T4 sequence (P41145 whole entry): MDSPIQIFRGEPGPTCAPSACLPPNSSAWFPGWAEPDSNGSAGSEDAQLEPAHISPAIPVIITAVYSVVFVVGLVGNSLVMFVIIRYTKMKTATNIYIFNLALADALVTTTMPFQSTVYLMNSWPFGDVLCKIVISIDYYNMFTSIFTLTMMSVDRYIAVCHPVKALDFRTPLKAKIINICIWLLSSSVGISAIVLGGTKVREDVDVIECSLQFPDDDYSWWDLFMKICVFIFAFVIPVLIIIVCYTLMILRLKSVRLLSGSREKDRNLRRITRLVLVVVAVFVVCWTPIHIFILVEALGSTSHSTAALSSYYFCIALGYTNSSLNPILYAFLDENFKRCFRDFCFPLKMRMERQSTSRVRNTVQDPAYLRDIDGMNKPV
Sequence of G-protein coupled receptor 35 (Q9HC97 whole entry): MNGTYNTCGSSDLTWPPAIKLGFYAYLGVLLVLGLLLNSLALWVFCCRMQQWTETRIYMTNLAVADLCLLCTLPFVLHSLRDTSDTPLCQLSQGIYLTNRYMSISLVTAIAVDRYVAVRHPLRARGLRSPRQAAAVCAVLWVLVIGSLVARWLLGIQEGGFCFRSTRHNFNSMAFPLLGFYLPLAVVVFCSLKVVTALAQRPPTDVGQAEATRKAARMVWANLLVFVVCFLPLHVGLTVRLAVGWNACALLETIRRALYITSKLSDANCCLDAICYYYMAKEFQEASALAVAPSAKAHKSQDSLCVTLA
Sequence of DNA dC->dU-editing enzyme APOBEC-3A (P31941 whole entry): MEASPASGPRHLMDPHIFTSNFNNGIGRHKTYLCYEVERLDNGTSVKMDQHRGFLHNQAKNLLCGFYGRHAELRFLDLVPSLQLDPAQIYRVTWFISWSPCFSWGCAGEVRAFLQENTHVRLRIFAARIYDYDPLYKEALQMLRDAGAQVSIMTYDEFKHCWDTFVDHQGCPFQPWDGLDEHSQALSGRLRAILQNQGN
Sequence of DNA dC->dU-editing enzyme APOBEC-3G (Q9HC16 whole entry): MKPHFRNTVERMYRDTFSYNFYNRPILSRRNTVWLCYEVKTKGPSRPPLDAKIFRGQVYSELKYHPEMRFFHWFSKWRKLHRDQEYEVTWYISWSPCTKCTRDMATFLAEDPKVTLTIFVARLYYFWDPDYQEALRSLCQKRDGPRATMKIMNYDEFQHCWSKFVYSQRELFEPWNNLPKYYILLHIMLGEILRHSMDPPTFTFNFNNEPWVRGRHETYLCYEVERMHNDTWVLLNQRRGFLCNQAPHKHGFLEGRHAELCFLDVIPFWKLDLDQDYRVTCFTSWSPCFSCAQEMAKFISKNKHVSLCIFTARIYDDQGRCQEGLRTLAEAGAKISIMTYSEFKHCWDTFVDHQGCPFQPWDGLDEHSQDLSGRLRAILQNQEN
Sequence of G-protein coupled receptor 55 (Q9Y2T6 whole entry): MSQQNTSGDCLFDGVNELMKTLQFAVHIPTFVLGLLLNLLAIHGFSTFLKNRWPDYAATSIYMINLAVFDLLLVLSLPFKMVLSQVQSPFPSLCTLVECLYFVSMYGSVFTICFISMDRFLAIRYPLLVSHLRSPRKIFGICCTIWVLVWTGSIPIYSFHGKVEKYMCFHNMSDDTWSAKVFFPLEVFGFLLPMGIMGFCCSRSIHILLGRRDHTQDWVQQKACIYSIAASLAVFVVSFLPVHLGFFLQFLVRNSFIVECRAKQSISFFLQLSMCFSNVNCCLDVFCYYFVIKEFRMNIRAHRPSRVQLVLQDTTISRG
Sequence of Phosphomannomutase 2 (O15305 whole entry): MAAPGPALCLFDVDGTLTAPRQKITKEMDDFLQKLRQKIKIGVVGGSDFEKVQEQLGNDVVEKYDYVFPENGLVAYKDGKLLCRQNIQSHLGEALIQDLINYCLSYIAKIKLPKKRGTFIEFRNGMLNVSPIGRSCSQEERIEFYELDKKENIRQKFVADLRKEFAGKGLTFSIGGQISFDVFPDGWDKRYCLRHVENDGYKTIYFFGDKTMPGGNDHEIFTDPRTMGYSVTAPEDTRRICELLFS

For `CC(C)CN1CC2(CCN(C(=O)c3csnn3)CC2)C1`, the AC50 entry on Cytochrome P450 1A2 is “inactive”.

`CCC(C)(C(=O)NC1CCCC1)N(Cc1cccs1)C(=O)c1ccccn1` (stereo not drawn): the EC50 at Mu-type opioid receptor [1] is > 32 µM (inactive); in data set [4], 0.806 µM (active); in [5], 2.07 µM (active); in data set [6] it was 2.13 µM; in data set [7], 1.86 µM; in data set [8], > 32 µM (inactive). The EC50 (in data set [10]; at Mu-type opioid receptor [11]) was > 32 µM (inactive) throughout. The IC50 (on Mu-type opioid receptor [2]; in [3]; in data set [9]; in data set [12]) was > 32 µM (inactive) throughout.

As to `C=CCn1c(C)c(/C=C/c2cc[n+](C)cc2)c2ccccc21`, the EC50 in data set [13] was > 60 µM (not active); in data set [17], 0.69 µM (active); on Troponin, cardiac muscle, 1.88 µM (active). Further, the IC50 in data set [14] was 2.79 µM (active); in data set [15], 16.3 µM (active); in data set [16], 1.97 µM (active); in data set [18], > 100 µM (inactive). Moreover, the AC50 in the data set with INS1 was 6.54 µM (active).

For `Clc1nss/c1=N\c1nncs1`, the IC50 is > 100 µM (inactive) at Phosphomannomutase 2; 3.1 µM (active) and 2.3 µM (active) in data set [19].

(Values after ChEMBL document CHEMBL1201862, “PubChem BioAssay data set” (2004).)
